Reference: US8299096B2, “Method for treating pulmonary diseases using rho kinase inhibitor compounds” (priority 2008, dated 2012)

Tests used:
[1] = system: ovalbumin-sensitized mice; assay: Bronchodilator assay in ovalbumin-sensitized mouse model of asthma (Penh); type: in vivo; conditions: oral doses
Procedure: Male BALB/c mice were ordered from Charles River Laboratories (Raleigh, N.C.). The animals were approximately 19 to 21 grams at time of receipt. Upon arrival, the animals were randomized into groups of five males per cage and assigned to a dosing group. Animals were quarantined for 7 days under test conditions. They were observed daily for general health status and ability to adapt to the water bottles.
Animals were sensitized on day 0 and 14 of study by an intraperitoneal injection with 20 μg of ovalbumin (ova) and 2.0 mg aluminum hydroxide (alum) which initiates the development of a specific T-helper (Th) cells type 2 resulting in asthmatic animals. One group of animals received an injection of saline to use as non-asthmatic control animals. All animals were challenged with aerosolized 1% ova once daily for 25 minutes on days 28, 29, and 30 (Zosky, et al. Respiratory Research, 2004; 5:15). Aerosol challenge consists of using an Aerogen Aeroneb nebulizer and controller with a particle size of 4-6 μm mass median aerodynamic diameter (MMAD) with a distribution of 400 μl per minute. This aerosol challenge is necessary to target the Th2-driven allergic inflammation in the lower airways.
The test compounds and the control vehicle were administered to animals on the day of airway hyperreactivity evaluation 30 minutes to 1 hour before the evaluation to determine the bronchodilator effects of the compounds according to the bronchodilator dosing paradigm (FIG. 3A). Compounds were administered p.o. (orally), i.p. (intraperitoneally) at 15 μMol/kg unless otherwise noted (Table 4). Alternatively, compounds were administered i.t. (intratracheally) at varying doses as shown (FIG. 3B). On day 32 of the experiment, airway hyperreactivity was evaluated by placing conscious, unrestrained animals in a whole body plethysmometer (Buxco Wilmington, N.C.) and exposing them to escalating doses of nebulized methacholine, a known bronchial constrictor which acts through the muscarinic receptors of the lungs, (doses: […]-50 mg/ml). Exposure to the methacholine doses consisted of a 3 minute period during which a nebulizer was aerosolizing the methacholine and an additional 3 minute period following the cessation of nebulization. Over this 6 minute period, the plethysmometer monitors and generates numerical values for all parameters of the breath pattern. Enhanced pause (Penh), a unitless index of airway hyperreactivity, is derived from the expiratory side of the respiratory waveform measured via the plethysmograph and is used as an indirect measure of airway resistance and hyperreactivity. […] Following the methacholine dose response, all animals were anesthetized, bled and euthanized.
Within each experiment, a mouse was given a single compound and exposed to increasing doses of methacholine [0 (baseline), 0.375, 0.75, 1.5, 3, 6, 12, 25, 50 mg/ml]. The Penh value at each of the dose levels of methacholine represents the 6-minute average response. Change from baseline (CFB) in Penh was calculated at each methacholine dose and the area under the curve (AUC) for these CFB values was calculated using the trapezoidal rule. This same approach was applied for each mouse across multiple experiments.
For statistical analyses, a linear mixed-effects model where the response was the log 10 transformed value of AUC described above was used. Data from equal experimental conditions across experiments performed on different days were pooled for statistical analysis and data reporting. The various compounds were compared adjusting for the log 10-transformed baseline value of Penh and the chamber (1 of 10) of the plethysmometer each mouse was contained in during an experiment. A random intercept for each experiment was assumed to account for possible similarities of the results obtained from a given experiment (i.e., as a “blocking effect”).
For Table 4 and Table 5, Penh values are reported as log 10 transformed AUC values. […]

[2] = system: ovalbumin-sensitized mice; assay: Prevention of airway hyperreactivity development, anti-inflammatory dosing paradigm (Penh); type: in vivo, mouse; conditions: oral, 15 μMol/kg once a day during days 27 to 31
[3] = Compound plasma concentrations in mice at 15 min post administration; type: in vivo, mouse; conditions: mouse plasma, 15 minutes, oral
Procedure: Additionally, compound concentrations were determined in the plasma and lungs of male, ovalbumin-sensitized, Balb/c mice from a murine model of asthma. Test compounds were formulated in water or 1% polysorbate 80 and dosed at 15 μmol/kg for intraperitoneal (IP) or oral (PO) administration or formulated for intratracheal (IT) administration and dosed at 5 μmol/kg, which directly targets the lungs. Following completion of the in vivo study, mice were euthanized and blood and plasma collected approximately 2.5-3 hours post administration of test compound for bronchodialator (BD) studies and 24 hours post administration for anti-inflamatory (AI) studies. Lungs were homogenized in Matrix A lysing tubes using a FastPrep 24 tissue and cell homogenizer (MP Biomedicals, Solon, Ohio). Both plasma samples and lung extracts were assayed for compound concentrations using an on-line, solid phase extraction LC/MS/MS system.

[4] = system: ovalbumin-sensitized mice; assay: Anti-inflammatory assay in ovalbumin-sensitized mouse model of asthma (BALF cells and cytokines); type: in vivo
Text: Mouse model of asthma via ovalbumin sensitization was created as described in Example 5. The anti-inflammatory dosing paradigm (FIG. 4) was utilized to evaluate the anti-inflammatory effects of experimental compounds. The anti-inflammatory dosing paradigm consists of dosing the animals once a day starting on day 27 and finishing on either day 30 or 31 (1 hr prior to the aerosolized ovalbumin challenges on days 28 to 30) but not on day 32 when hyper-reactivity evaluation occurs.
Bronchoalveolar lavage fluid (BALF) was collected by infusing 3.0 ml of saline with 10% fetal calf serum into the lungs via the trachea and then withdrawing the fluid. The total amount of cells/ml of BALF fluid was determined via manual cell count on hemocytometer. The BALF was centrifuged, supernatant removed and analyzed for cytokine concentrations as described below, and cell pellet reconstituted in 500 μL of fluid. Cytospin slides were prepared from the cell pellet using 100 μL of fluid and spinning samples for 5 minutes at 5000 rpms in a cytospin centrifuge. Following Hema3 stain, relative percentages of individual leukocytes were determined on a 200 cell count for each sample. The final concentration of individual leukocyte cell types per ml of BALF was determined by multiplication of the relative percentage of individual leukocytes with the total amount of cells/ml of BALF fluid.
The concentrations of cytokines in the BALF samples were determined using commercially available Bio-plex kits (Bio-Rad) for the detection of mouse IL-5, IL-13, and Eotaxin. The analysis of cytokine levels was measured using the Bio-Plex 200 (Bio-Rad) system according to the manufacturer's instructions.

murine eosinophils = assay: Murine eosinophil chemotaxis (eotaxin-induced); type: cell-based, mouse; conditions: 10 nM eotaxin, one hour
Procedure: Mouse Eosinophil Isolation: Bronchoalveolar lavage was collected from ovalbumin sensitized and challenged mice in a volume of 2.5 mL lavage buffer. The lavage buffer was 0.9% saline with 10% fetal bovine serum. The pooled lavages were maintained on ice until use. The murine eosinophils were isolated using MACS cell separation (Miltenyi Biotech) by depletion of B cells and T cells by positive selection following incubation with antibody conjugated magnetic beads specific for CD45-R (B220) and CD90 (Thy 1.2), which bind B cells and T cells, respectively.
In Vitro Chemotaxis: Eosinophil chemotaxis was assessed using a modified Boyden Chamber (Neuroprobe, 96-well) with a 5 μm pore membrane. The ability of the tested compounds to block chemotaxis induced by a 10 nM eotaxin challenge (mouse) or 1 nM eotaxin challenge (human) during one hour incubation at 37° C. with 5% CO2 was assessed. Chemotaxis was quantified via microscopy by counting the number of migrated cells in at least 3 view fields per treatment.

human eosinophils = assay: Human eosinophil chemotaxis (eotaxin-induced); type: cell-based; conditions: 1 nM eotaxin, one hour
Text: Human Eosinophil Isolation: Peripheral blood from healthy human volunteers was collected and the PMNs separated via Ficoll-paque density centrifugation followed by hypotonic lysis of the red blood cells. Subsequently, the human eosinophils were isolated from the cell suspension via StemCell Technologies Human Eosinophil Enrichment kit (Cat. No 19256) according to the manufacturer's recommendations. Briefly, unwanted cells were specifically labeled with dextran-coated magnetic nanoparticles using bispecific Tetrameric Antibody Complexes (TAC) directed against cell surface antigens on human blood cells: […] The unwanted cells are then separated from the unlabelled eosinophils using the EasySep® magnetic isolation procedure. In Vitro Chemotaxis: […]

human neutrophils = assay: Human neutrophil chemotaxis (fMLP-induced); type: cell-based; conditions: 1 h, read-out: Chemotaxis Avg IC50
Procedure: Peripheral blood from healthy human volunteers was collected and the neutrophils were isolated by Ficoll-paque density centrifugation followed by dextran sedimentation and hypotonic lysis of the red blood cells. Neutrophil chemotaxis was assessed using a modified Boyden Chamber (Neuroprobe, 96-well) with a 3 μm pore polycarbonate membrane. The ability of the tested compounds to block chemotaxis induced by a 1 μM fMLP challenge during a one hour incubation at 37° C. with 5% CO2 was assessed in a dose response manner.

rat tracheal rings = assay: Tracheal relaxation assay, carbachol precontracted rings; conditions: Rattus norvegicus, read-out: IC50 Avg, tracheal ring relaxation
Procedure: Trachea were excised, cleaned of connective tissue and cut into cylindrical segments of 2-3 mm length. Two stainless steel wires were guided through the lumen of the tracheal ring. One wire was fixed in the tissue bath and the other was connected to a force transducer via surgical silk. […] Indomethacin (1 μM), a cyclooxygenase inhibitor, was added to the Krebs buffer and was present throughout the experiments. Contractile tensions were measured using an isometric force transducer (Grass Instruments) and signals were analyzed using specialized software (Chart v5.5, ADInstruments). The preparations were allowed to equilibrate at a resting tension of 0.3 to 0.5 gm prior to two challenges with 60 mM KCl to assess tissue viability. After washing, tissues were treated with 1 μM carbachol for 10 to 15 minutes to induce a contractile response. Test Compounds were added cumulatively to the bath every 30 minutes and reductions in tension were recorded. Basal tension was subtracted from all values and data were reported as a percentage of the maximal carbachol-induced contraction. Data were fit to the Hill equation using GraphPad Prism v5 software.

rat aorta = assay: Aortal relaxation assay, norepinephrine precontracted; conditions: 100 nM norepinephrine, 100 μM compound
Procedure: The effects of compounds to induce relaxation of pre-contracted rat pulmonary artery and rat aorta were determined. Male Sprague-Dawley rats weighing 301-325 gm were sacrificed by asphyxiation in a CO2 chamber. Pulmonary artery or aorta were excised, cleaned of connective tissue and cut into cylindrical segments of 2-3 mm length. The preparations were mounted in a tissue bath by tying two threads of surgical silk through the lumen of the vessel. One silk was used to anchor the tissue to a metal wire in the bath and the other silk was connected to a force transducer. Preparations were mounted in 5 ml water-jacketed organ baths (Radnoti Glass Technology) filled with Krebs buffer (95 mM NaCl, 5 mM KCl, 2.6 mM CaCl2, 1.2 mM MgSO4, 24.9 mM NaHCO3, 1.2 mM KH2PO4, 10 mM glucose) maintained at 37° C. and gassed with 95% O2 and 5% CO2. Contractile tensions were measured using an isometric force transducer (Grass Instruments) and signals were analyzed using specialized software (Chart v5.5, ADInstruments). […] For pulmonary artery, compounds were added cumulatively to the bath every 30 minutes and reductions in tension were recorded. […] For aorta, a single dose of compound was added and reductions in tension were recorded.

[5] = 15 μmol/kg/oral on days 27 to 31

## CS(=O)(=O)Nc1cccc(CN2CC[C@@H](Nc3cccc4cnccc34)C2)c1 [Compound 2.038]
[1]
  Reduction in airway hyperresponsivness: statistically significant reduction
[2]
  Prevention of airway hyperreactivity to metacholine on Day 32: prevention of airway hyperreactivity
[3]
  Detection in mouse plasma 15 minutes after oral dosing: readily detectable
[4]; [5]
  Eotaxin level in BALF: reduced levels
  IL-5 level in BALF: reduced levels
  IL-13 level in BALF: reduced levels
[4]; dosed orally to day 31, anti-inflammatory dosing paradigm
  Airway eosinophil infiltration (eosinophils per ml of BALF): reduced
Murine eosinophils
  Eotaxin-induced chemotactic response of murine eosinophils: inhibited
Human eosinophils
  Eotaxin-induced chemotactic response of human eosinophils: inhibited

## Cc1cncc2cccc(S(=O)(=O)N3CCCNC[C@@H]3C)c12 [Compound H-1152, 4-methyl-5-(2-methyl-[1,4]diazepan-1-sulfonyl)isoquinoline]
Human neutrophils
  IC50: 4350 nM
Rat tracheal rings
  IC50: 164 nM

## OCCOc1cccc(CN2CC[C@@H](Nc3cccc4cnccc34)C2)c1 [Compound 2.039]
Rat aorta
  Norepinephrine-induced tension of aortal ring: fully reversed
